What all share (assay type): biochemical
The test system of assay [1] is sorbitol dehydrogenase derived from Pseudomonas fluorescens A-989 strain. As to the kind of experiment: Substrate specificity (Vmax/Km, Km) of sorbitol dehydrogenase from A-989 strain. The following applies: enzyme from Pseudomonas fluorescens A-989; for Vmax/Km: relative to D-sorbitol taken as 100. The protocol:
(§1) The sorbitol dehydrogenase of the invention has the foregoing physicochemical properties. In the present invention, the measurement of the activity of sorbitol dehydrogenase was carried out by adding an enzyme solution to a 80 mM Tris-HCl buffer (pH 9.0) containing 50 mM of D-sorbitol and 2 mM of NAD^+, slowly mixing them, and then measuring the change of absorbance at 340 nm by means of a spectrophotometer. The measurement was made at a temperature of 30° C. The amount of enzyme required to produce 1 μmol of NADH per minute was defined to be 1 unit (U).
(§2) (2) Substrate specificity: The Vmax/Km of the sorbitol dehydrogenase of the invention with respect to various substrates (relative to that with respect to D-sorbitol taken as 100) is about 40 or less for galactitol and about 3 or less for iditol, preferably about 30 or less for galactitol and about 2 or less for iditol. The Km for D-sorbitol is about 6 mM or less, preferably about 4 mM or less. Among the sorbitol dehydrogenases of the invention, the substrate specificities of those derived from Flavimonas oryzihabitans A-520 strain, Pseudomonas fluorescens A-989 strain and Pseudomonas fluorescens A-654 strain are shown in Table 2 below.
(§3) Vmax means the maximum velocity of the reaction at the saturated substrate concentration and Km means the Michaelis constant. The Vmax/Km values indicates the apparent […] of the enzyme reaction as a whole, which is generally used as an index for reflecting the substrate specificity. These values may be measured and calculated in accordance with the methods described in Chapter 8 of Biochemistry, second edition, by Albert Lehninger, 1975, Worth Publishers, Inc. or in Enzyme Structure and Mechanism, second edition, by Alan Fersht, 1984, W. H. Freeman & Co.

The subject of assay [2] is sorbitol dehydrogenase derived from Flavimonas oryzihabitans A-520 strain. As to the kind of experiment: Substrate specificity (Vmax/Km, Km) of sorbitol dehydrogenase from A-520 strain. The following applies: enzyme from Flavimonas oryzihabitans A-520; for Vmax/Km: relative to D-sorbitol taken as 100. On the procedure: as §1, §2, §3
Assay [3] deals with sorbitol dehydrogenase derived from Pseudomonas fluorescens A-654 strain. As to the kind of experiment: Substrate specificity (Vmax/Km, Km) of sorbitol dehydrogenase from A-654 strain. The following applies: enzyme from Pseudomonas fluorescens A-654; for Vmax/Km: relative to D-sorbitol taken as 100. On the procedure: as §1, §2, §3

Regarding `OC[C@H](O)[C@@H](O)[C@H](O)[C@@H](O)CO` [Iditol, L-iditol], the Vmax/Km in assay [1] turned out to be 2.78%; in assay [2], 1.99%; in assay [3] it was 1.55%.
Taken in the same sequence, the figures for `OC[C@@H](O)C(O)[C@H](O)CO` [Arbitol, D-arabitol] were 0%, 0% and 0%.
Take `OC[C@@H](O)[C@H](O)[C@@H](O)CO` [Xylitol, xylitol]: the Vmax/Km in assay [1], in assay [2] and in assay [3] was 0% in each case.
For `OC[C@@H](O)[C@@H](O)[C@H](O)[C@H](O)CO` [Mannitol, D-mannitol], the Vmax/Km in assay [1], in assay [2] and in assay [3] was 0% throughout.
By Km is commonly meant the concentration of substrate that gives half-maximal velocity. For the molecule `OC[C@@H](O)[C@@H](O)[C@H](O)[C@@H](O)CO` [Sorbitol, D-sorbitol], the Michaelis-Menten constant (Km) was 5900 µM in assay [1], 2500 µM in assay [2] and 3500 µM in assay [3]. Moreover, the Vmax/Km in assay [1], in assay [2] and in assay [3] was 100% in each case.
In the case of `OC[C@@H](O)[C@H](O)[C@H](O)[C@@H](O)CO` [Galactitol], the results for the Km in assay [1], in assay [2] and in assay [3] were 3100 µM, 1900 µM and 2000 µM, respectively. For the same molecule, the Vmax/Km stood at 36.8% in assay [1], 28.9% in assay [2] and 31.9% in assay [3].
On to `O=C[C@H](O)[C@@H](O)[C@H](O)[C@H](O)CO` [D-Glucose, D-glucose], for which the Vmax/Km in assay [1], in assay [2] and in assay [3] was 0% in each case.
